Data from PMC10044114, “Mechanisms of Antimicrobial Peptides from Bagasse against Human Pathogenic Bacteria” (Antibiotics, 2023).

Experiments:
Test in all cases: Broth dilution growth inhibition (OD600)
Assay type in all cases: cell-based
[1] = tested on: Bacillus subtilis ATCC6633; conditions: TSB, mean ± SD, triplicate; for Inhibitory percentage, Bacillus subtilis: 100 µg/mL
Description: (§1) Three human pathogenic bacteria were selected for investigation, namely Bacillus subtilis ATCC6633, Pseudomonas aeruginosa ATCC28753, and Burkholderia cepacia ATCC25416.
(§2) In evaluating antibacterial activity by the broth dilution assay, human pathogenic bacteria were first prepared in tryptic soy agar (TSA) (Difco BBL, Sparks, MD, USA) for 24 h at 28 °C. Then, a single colony was cultured in tryptic soy broth (TSB) (Difco BBL, Sparks, MD, USA) for 12–16 h to reach an inoculum of 0.05 at OD600. The antibacterial activity of lower than 3 kDa protein hydrolysates/peptides was then determined against the pathogens in triplicate using 96-well microplates, with bacteria in TSB, phosphate-buffered saline (PBS), and antibiotic treatment (ampicillin and kanamycin) used as controls. The final concentration of antibiotics and protein hydrolysates/peptides was 100 µg/mL. After incubation for 0, 2, 4, and 6 h, the OD600 was documented using a microplate reader (Synergy H1 Hybrid Multi-Mode Reader, Biotek, Winusky, VT, USA).
(§3) A completely randomized design was used: protein hydrolysates/peptides from six agricultural wastes, seven agro-industrial wastes, and two fishery wastes as treatments; and human pathogenic bacteria P. aeruginosa ATCC28753, Bacillus subtilis ATCC6633, and Burkholderia cepacia ATCC25416 grown in tryptic soy broth (TSB) (Difco BBL, Sparks, MD, USA) at 28 °C in 96-well plates as experimental units. Experiments were conducted in triplicate and all the results shown in this study are presented as mean ± standard deviation (SD).

[2] = tested on: Pseudomonas aeruginosa ATCC28753; conditions: TSB, mean ± SD, triplicate; for Inhibitory percentage, P. aeruginosa: synthetic peptides
Description: as §1, §2, §3

[3] = tested on: Burkholderia cepacia ATCC25416; conditions: TSB, mean ± SD, triplicate; for Inhibitory percentage, Burkholderia cepacia: 100 µg/mL
Description: as §1, §2, §3

[4] = lower than 3 kDa hydrolysates and antibiotics, 6 h after treatment, 96-well

With `CC1(C)S[C@@H]2[C@H](NC(=O)[C@H](N)c3ccccc3)C(=O)N2[C@H]1C(=O)O` [ampicillin, reference compound] as the molecule, how does the inhibition at 100 µg/mL ([1]; Bacillus subtilis, ATCC6633, lower than 3 kDa hydrolysates and antibiotics, 6 h after treatment, 96-well, read-out: Inhibitory percentage, Bacillus subtilis) read?
Its inhibition at 100 µg/mL is 85.2 ± 10.6%.

And the inhibition at 100 µg/mL ([2]; Pseudomonas aeruginosa, ATCC28753, lower than 3 kDa hydrolysates and antibiotics, 6 h after treatment, 96-well, read-out: Inhibitory percentage, Pseudomonas aeruginosa)?
Its inhibition at 100 µg/mL is 32 ± 1.59%.

And the inhibition at 100 µg/mL ([3]; Burkholderia cepacia, ATCC25416, lower than 3 kDa hydrolysates and antibiotics, 6 h after treatment, 96-well, read-out: Inhibitory percentage, Burkholderia cepacia)?
Its inhibition at 100 µg/mL is 32.8 ± 4.18%.

Which “Inhibitory percentage, Bacillus subtilis” value ([1]; synthetic peptides) does the source give for “WDTDNLSPDAVAAIKAAHPNVAVMAGL [compound 5, synthetic peptide from bagasse (AW6) hydrolysate; Chitinase fragment]” here?
The value was 5.97 ± 0.06.

What about the “Inhibitory percentage, P. aeruginosa” value ([2]; 100 µg/mL) of the same molecule?
The value was 30.34 ± 0.95.

What about the “Inhibitory percentage, Burkholderia cepacia” value ([3]; synthetic peptides) of the same molecule?
The value was 20.51 ± 0.48.

For `NC[C@H]1O[C@H](O[C@H]2[C@H](O)[C@@H](O[C@H]3O[C@H](CO)[C@@H](O)[C@H](N)[C@H]3O)[C@H](N)C[C@@H]2N)[C@H](O)[C@@H](O)[C@@H]1O` [kanamycin, reference compound], which “Inhibitory percentage, Bacillus subtilis” value [1, 4] is on record?
The value was 77.60 ± 0.85%.

What about the “Inhibitory percentage, Pseudomonas aeruginosa” value ([2]; lower than 3 kDa hydrolysates and antibiotics, 100 µg/mL, 6 h after treatment, 96-well) of the same molecule?
Its value is 39.00 ± 2.81%.

And the “Inhibitory percentage, Burkholderia cepacia” value [3, 4]?
The value was 87.02 ± 0.42%.

With “GAFHVTGL [compound 1, synthetic peptide from bagasse (AW6) hydrolysate; Photosystem II CP47 reaction center protein fragment]” as the molecule, how does the “Inhibitory percentage, Bacillus subtilis” value ([1]; synthetic peptides) read?
Its value is 3.82 ± 0.09.

What about the “Inhibitory percentage, P. aeruginosa” value ([2]; 100 µg/mL) of the same molecule?
The value was 21.74 ± 0.96.

And the “Inhibitory percentage, Burkholderia cepacia” value ([3]; synthetic peptides)?
The value was 9.09 ± 0.04.

With “NLWSNEINQDMAEF [Peptide no.3, Asn-Leu-Trp-Ser-Asn-Glu-Ile-Asn-Gln-Asp-Met-Ala-Glu-Phe, synthetic peptide from bagasse (AW6) hydrolysate; LRR receptor-like serine/threonine-protein kinase GSO2 fragment]” as the molecule, how does the “Inhibitory percentage, Bacillus subtilis” value ([1]; synthetic peptides) read?
The value was 11.33 ± 0.29.

What about the “Inhibitory percentage, P. aeruginosa” value ([2]; 100 µg/mL) of the same molecule?
The value was 24.87 ± 0.81.

And the “Inhibitory percentage, Burkholderia cepacia” value ([3]; synthetic peptides)?
Its value is 23.32 ± 0.68.

“VLSSWGDESTL [compound 2, synthetic peptide from bagasse (AW6) hydrolysate; RNA helicase fragment]” was tested. Which “Inhibitory percentage, Bacillus subtilis” value ([1]; synthetic peptides) did it give?
The value was 4.45 ± 0.03.

And the “Inhibitory percentage, P. aeruginosa” value ([2]; 100 µg/mL)?
Its value is 23.61 ± 0.12.

What about the “Inhibitory percentage, Burkholderia cepacia” value ([3]; synthetic peptides) of the same molecule?
Its value is 14.92 ± 0.72.

“VSNCL [Peptide no.4, Val-Ser-Asn-Cys-Leu, synthetic peptide from bagasse (AW6) hydrolysate; 3-ketoacyl-CoA synthase fragment]” was tested. Which “Inhibitory percentage, Bacillus subtilis” value ([1]; synthetic peptides) did it give?
The value was 10.39 ± 0.33.

What about the “Inhibitory percentage, P. aeruginosa” value ([2]; 100 µg/mL) of the same molecule?
Its value is 24.70 ± 0.81.

What about the “Inhibitory percentage, Burkholderia cepacia” value ([3]; synthetic peptides) of the same molecule?
Its value is 20.56 ± 0.28.
